Assay results: patent publication US8058285B2, “Substituted pyrido [3′, 2′: 4, 5] thieno [3, 2-D] pyrimidines and pyrido [3′, 2′: 4, 5] furo [3, 2-D] pyrimidines used as inhibitors of the PDE-4 and/or the release of TNF-ALPHA” (The Medicines Company (Leipzig) GmbH, priority 2004, dated 2011)
Several values for one entry are separate records, joined by “and”; a condition that tells them apart may be missing. Identical values can stand only once. Counter-ions that a name gives are not always drawn.

Target: T1, PDE-4A (Homo sapiens, UniProt P27815)
T1 construct: PDE-4A catalytic domain comprising amino acids 342-704; made in house; host or cells: Escherichia coli
Assay: PDE-4A inhibitory assay (SPA)
Type: biochemical
Excerpt: Human recombinant PDE-4A catalytic domain comprising amino acids 342-704 was cloned into Escherichia coli and expressed, as described by W. Richter et al., Protein Expression and Purification (2000) 19: 375-383. The other posphodiesterases were either obtained from cell lines of human origin (TPH1 monocytes line for PDE-1, MCF7 for PDE-5) or expressed recombinantly in sf9 insect cells (for PDE-3A, PDE-3B, PDE-7A and PDE-4D) in accordance with an adapted method by Luckow, V. A. et al., in: Recombinant DNA Technology & Applications., (1991) eds. Prokop, Bajpai, R. K. & Ho, C. S., pp 97-152.
The phosphodiesterase activity was determined by the SPA assay as described by the manufacturer Amersham Biosciences and by Horton J. K and Baxendale P. M., Methods Mol. Biol. (1995) 41: 91-105.
The reaction mixtures contained 100 mM Tris-HCl (pH 7.5), 5 mM MgCl2, 3.8 mM 2-mercaptoethanol, and 1 μM cAMP or cGMP as a substrate, the inhibitors at different concentrations and also further components required for the detection of the individual isoenzymes (see below). The reaction was started by adding the enzyme. The operating volume is 100 μl in the wells of a white 96-Well microtiter plate. The test substances were produced as stock solutions in DMSO. The DMSO concentration in the reaction batch was 1% v/v. The PDE activity is not impaired with this DMSO concentration. Having started the reaction by the addition of enzyme, the samples were incubated at 22° C. for 20 min. The reaction was stopped by the addition of SPA bead suspension which contains the zinc sulfate concentration provided according to the manufacturer. Then, the beads are allowed to sediment for 30 min and the plates are analyzed on the luminescence microtiter plate reader Fluostar Optima (BMG Labtechologies).
[^3H]-cAMP was used as a substrate for determining the activity of PDE-2, -3, -4 and -7 and [^3H]-cGMP for determining the activity of PDE-5. The non-specific enzyme activities were determined in the presence of 100 μM rolipram (for PDE-4) and in the presence of 100 μM IBMX (for PDE-3 and -5) and subtracted from the test values. The incubation samples of the PDE-3 assay contain 10 μM rolipram to inhibit possible contaminations by PDE-4. The PDE-2 activity is tested using a SPA assay by Amersham Biosciences in the presence of the PDE-2 activator 5 μM cGMP. […] The selectivity as to PDEs 2, 3 and 5 has a factor of 100 to 10 000.

T1 sequence (P27815 342-704): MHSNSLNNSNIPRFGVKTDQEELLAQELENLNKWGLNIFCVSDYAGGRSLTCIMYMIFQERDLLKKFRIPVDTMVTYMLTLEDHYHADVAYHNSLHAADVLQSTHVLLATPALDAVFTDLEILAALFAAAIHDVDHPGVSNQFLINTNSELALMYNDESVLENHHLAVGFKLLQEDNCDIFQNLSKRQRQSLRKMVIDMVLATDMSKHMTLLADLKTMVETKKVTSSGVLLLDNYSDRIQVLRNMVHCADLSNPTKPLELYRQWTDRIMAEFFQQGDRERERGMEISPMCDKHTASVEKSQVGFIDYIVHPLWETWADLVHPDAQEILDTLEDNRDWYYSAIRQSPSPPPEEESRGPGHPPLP

Compound	IC50
CCOc1nc(N2CCNCC2)nc2c1sc1nc(-c3ccc(N4CCCCC4)cc3)cc(C(F)(F)F)c12 [4-Ethoxy-2-(piperazin-1-yl)-7-(4-(piperidin-1-yl)phenyl)-9-trifluoromethyl-pyrido[3′,2′:4,5]thieno[3,2-d]pyrimidine]	< 2 nM
CCCc1nc(N2CCNCC2)c2sc3nc(-c4ccc(OC)c(OC)c4)cc(C)c3c2n1 [7-(3,4-Dimethoxy-phenyl)-9-methyl-4-(piperazin-1-yl)-2-n-propyl-pyrido[3′,2′:4,5]thieno[3,2-d]pyrimidine]	2 to 50 nM
CCOc1nc(N2CCNCC2)nc2c1sc1nc(-c3ccc(SC)cc3)cc(C)c12 [4-Ethoxy-9-methyl-7-(4-methylthio-phenyl)-2-piperazin-1-yl-pyrido[3′,2′:4,5]thieno[3,2-d]pyrimidine]	2 to 50 nM
CCCOc1nc(N2CCNCC2)nc2c1sc1nc(-c3ccc(OCC)cc3)cc(CC)c12 [7-(4-Ethoxy-phenyl)-9-ethyl-2-(piperazin-1-yl)-4-n-propoxy-pyrido[3′,2′:4,5]thieno[3,2-d]pyrimidine]	< 2 nM
CCOc1nc(N2CCNCC2)nc2c1sc1nc(N3CCN(c4ccccc4)CC3)cc(CC)c12 [4-Ethoxy-9-ethyl-7-(4-phenyl-piperazin-1-yl)-2-piperazin-1-yl-pyrido[3′,2′:4,5]thieno[3,2-d]pyrimidine]	2 to 50 nM
Cc1cc(-c2ccccc2)nc2sc3c(N4CCNCC4)nc(OC(C)C)nc3c12 [9-Methyl-7-phenyl-4-(piperazin-1-yl)-2-iso-propoxy-pyrido[3′,2′:4,5]thieno[3,2-d]pyrimidine]	2 to 50 nM
CCOc1nc(N2CCNCC2)nc2c1sc1nc(-c3ccc(-c4cc(OC)c(OC)c(OC)c4)cc3)nc(C)c12 [4-Ethoxy-9-methyl-2-piperazin-1-yl-7-(3′,4′,5′-trimethoxybiphen-4-yl)-thieno[2,3-d:4,5-d′]dipyrimidine]	< 2 nM
CCOc1nc(N2CCNCC2)nc2c1sc1nc3c(c(C(F)(F)F)c12)CCc1cc(OC)ccc1-3 [5,6-Dihydro-11-ethoxy-3′-methoxy-9-piperazin-1-yl-7-trifluoromethyl-benzo[h]pyrimido[4′,5′:4,5]thieno[2,3-b]quinoline]	< 2 nM
CCOc1nc(N2CCNCC2)nc2c1sc1nc(-c3ccc(C)cc3)cc(C(C)C)c12 [4-Ethoxy-7-(4-methyl-phenyl)-9-iso-propyl-2-(piperazin-1-yl)-pyrido[3′,2′:4,5]thieno-[3,2-d]pyrimidine]	< 2 nM
CCOc1nc(N2CCNCC2)c2sc3nc(-c4ccccc4)c4c(c3c2n1)CCCC4 [10-Ethoxy-5-phenyl-8-piperazin-1-yl-pyrimido[4′,5′:4,5]thieno[2,3-c]-1,2,3,4-tetrahydro-isoquinoline]	2 to 50 nM
CCOc1nc(N2CCNCC2)nc2c1sc1nc(-c3ccc(Br)cc3)cc(CC)c12 [7-(4-Bromo-phenyl)-4-ethoxy-9-ethyl-2-(piperazin-1-yl)-pyrido[3′,2′:4,5]thieno[3,2-d]pyrimidine]	< 2 nM
CCOc1nc(N2CCNCC2)nc2c1sc1nc(-c3ccc(-c4c(C)noc4C)cc3)nc(C)c12 [7-(4-[3,5-Dimethyl-isoxazol-4-yl]-phenyl)-4-ethoxy-9-methyl-2-piperazin-1-yl-thieno[2,3-d:4,5-d′]dipyrimidine]	< 2 nM
CCOc1nc(N2CCNCC2)nc2c1sc1nc(-c3ccccc3)c3c(c12)CCCC3 [8-Ethoxy-5-phenyl-10-piperazin-1-yl-pyrimido[4′,5′:4,5]thieno[2,3-c]-1,2,3,4-tetrahydro-isoquinoline-hydrochloride]	2 to 50 nM
CCOc1nc(N2CCNCC2)nc2c1sc1nc(-c3ccc(-c4ccc(N)cc4)cc3)nc(C)c12 [7-(4′-Aminobiphen-4-yl)-4-ethoxy-9-methyl-2-piperazin-1-yl-thieno[2,3-d:4,5-d′]dipyrimidine]	< 2 nM
CCOc1nc(N2CCNCC2)nc2c1sc1nc(-c3ccc(-c4cccc(C(=O)OC)c4)cc3)nc(C)c12 [4-(4-Ethoxy-9-methyl-2-piperazin-1-yl-thieno[2,3-d:4,5-d′]dipyrimidin-7-yl)-biphenyl-3′-carboxylic acid methyl ester]	2 to 50 nM
CCCc1nc(N2CCNCC2)c2sc3nc(-c4ccccc4)cc(C)c3c2n1 [9-Methyl-7-phenyl-4-(piperazin-1-yl)-2-n-propyl-pyrido[3′,2′:4,5]thieno[3,2-d]pyrimidine]	2 to 50 nM

Compound	IC50
CCCOc1nc(N2CCNCC2)c2sc3nc(-c4ccc(OCC)cc4)cc(CC)c3c2n1 [7-(4-Ethoxy-phenyl)-9-ethyl-4-(piperazin-1-yl)-2-n-propoxy-pyrido[3′,2′:4,5]thieno[3,2-d]pyrimidine]	2 to 50 nM
CCCOc1nc(N2CCNCC2)c2sc3nc(-c4ccccc4)cc(C)c3c2n1 [9-Methyl-7-phenyl-4-piperazin-1-yl-2-n-propoxy-pyrido[3′,2′:4,5]thieno[3,2-d]pyrimidine]	2 to 50 nM
CCOc1nc(N2CCNCC2)nc2c1sc1nc(N3CCOCC3)c3c(c12)CCC3 [7-Ethoxy-2,3-dihydro-4-morpholino-9-piperazin-1yl-1H-cyclopenta[4′,5′]pyrido[3′,2′:4,5]thieno[3,2-d]pyrimidine]	2 to 50 nM
CCOc1nc(N2CCNCC2)c2sc3nc(-c4ccc5c(c4)OCO5)cc(C)c3c2n1 [2-Ethoxy-9-methyl-7-(3,4-methylenedioxyphenyl)-4-piperazin-1-yl-pyrido[3′,2′:4,5]thieno-[3,2-d]pyrimidine]	2 to 50 nM
CCOc1nc(N2CCNCC2)nc2c1sc1nc(-c3ccc(C(C)(C)C)cc3)nc(C)c12 [7-(4-tert-Butyl-phenyl)-4-ethoxy-9-methyl-2-piperazin-1-yl-thieno[2,3-d:4,5-d′]dipyrimidine]	2 to 50 nM
CCOc1nc(N2CCNCC2)nc2c1sc1nc(-c3ccc(OC)cc3)cc(C(F)(F)F)c12 [4-Ethoxy-7-(4-methoxy-phenyl)-2-(piperazin-1-yl)-9-trifluoromethyl-pyrido[3′,2′:4,5]thieno[3,2-d]pyrimidine]	< 2 nM
CCOc1nc(N2CCNCC2)nc2c1sc1nc(-c3ccc([N+](=O)[O-])cc3)cc(C(F)(F)F)c12 [4-Ethoxy-7-(4-nitro-phenyl)-2-piperazin-1-yl-9-trifluoromethyl-pyrido[3′,2′:4,5]thieno[3,2-d]pyrimidine]	2 to 50 nM
CCOc1nc(N2CCNCC2)nc2c1sc1nc(-c3ccc(OC)cc3)nc(C)c12 [4-Ethoxy-7-(4-methoxy-phenyl)-9-methyl-2-piperazin-1-yl-thieno[2,3-d:4,5-d′]dipyrimidine]	2 to 50 nM
CCOc1nc(N2CCNCC2)nc2c1sc1nc(N3CCSCC3)cc(C)c12 [4-Ethoxy-9-methyl-7-thiomorpholino-2-(piperazin-1-yl)-pyrido[3′,2′:4,5]thieno[3,2-d]pyrimidine-hydrochloride]	2 to 50 nM
CCOc1nc(N2CCNCC2)nc2c1sc1nc(-c3ccc(Br)cc3)nc(C)c12 [7-(4-Bromo-phenyl)-4-ethoxy-9-methyl-2-piperazin-1-yl-thieno[2,3-d:4,5-d′]dipyrimidine]	2 to 50 nM
CCOc1nc(N2CCNCC2)nc2c1sc1nc(-c3ccc(OC)cc3)cc(CC)c12 [4-Ethoxy-9-ethyl-7-(4-methoxyphenyl)-2-(piperazin-1-yl)-pyrido[3′,2′:4,5]thieno[3,2-d]pyrimidine]	< 2 nM
CCOc1nc(N2CCNCC2)c2sc3nc(-c4ccc(C)cc4)cc(CC)c3c2n1 [2-Ethoxy-9-ethyl-7-(4-methyl-phenyl)-4-(piperazin-1-yl)-pyrido[3′,2′:4,5]thieno[3,2-d]pyrimidine]	< 2 nM and 2 to 50 nM
CCOc1ccc(-c2cc(CC)c3c(n2)sc2c(N4CCNCC4)nc(OCC)nc23)cc1 [2-Ethoxy-7-(4-ethoxy-phenyl)-9-ethyl-4-(piperazin-1-yl)-pyrido[3′,2′:4,5]thieno[3,2-d]pyrimidine]	< 2 nM
CCOc1nc(N2CCNCC2)nc2c1sc1nc(-c3ccc(OC)c(OC)c3)cc(C)c12 [4-Ethoxy-7-(3,4-dimethoxy-phenyl)-9-methyl-2-(piperazin-1-yl)-pyrido[3′,2′:4,5]thieno-[3,2-d]pyrimidine]	2 to 50 nM
CCOc1nc(N2CCNCC2)nc2c1sc1nc(-c3ccc(-c4ccc(OC)c(OC)c4)cc3)nc(C)c12 [7-(3′,4′-Dimethoxybiphen-4-yl)-4-ethoxy-9-methyl-2-piperazin-1-yl-thieno[2,3-d:4,5-d′]dipyrimidine]	< 2 nM
CCOc1nc(N2CCNCC2)nc2c1sc1nc(-c3ccc(-n4cccn4)cc3)cc(CC)c12 [4-Ethoxy-7-(4-(1H-pyrazol-1-yl)-phenyl)-9-ethyl-2-piperazin-1-yl-pyrido[3′,2′:4,5]thieno[3,2-d]pyrimidine]	< 2 nM
